What all share (type): cell-based
Experiment [1] has as its target T1, human TLR7 (Homo sapiens, UniProt Q9NYK1).
T1 construct: host or cells: HEK-Blue cells
T1 sequence (Q9NYK1 27-1049): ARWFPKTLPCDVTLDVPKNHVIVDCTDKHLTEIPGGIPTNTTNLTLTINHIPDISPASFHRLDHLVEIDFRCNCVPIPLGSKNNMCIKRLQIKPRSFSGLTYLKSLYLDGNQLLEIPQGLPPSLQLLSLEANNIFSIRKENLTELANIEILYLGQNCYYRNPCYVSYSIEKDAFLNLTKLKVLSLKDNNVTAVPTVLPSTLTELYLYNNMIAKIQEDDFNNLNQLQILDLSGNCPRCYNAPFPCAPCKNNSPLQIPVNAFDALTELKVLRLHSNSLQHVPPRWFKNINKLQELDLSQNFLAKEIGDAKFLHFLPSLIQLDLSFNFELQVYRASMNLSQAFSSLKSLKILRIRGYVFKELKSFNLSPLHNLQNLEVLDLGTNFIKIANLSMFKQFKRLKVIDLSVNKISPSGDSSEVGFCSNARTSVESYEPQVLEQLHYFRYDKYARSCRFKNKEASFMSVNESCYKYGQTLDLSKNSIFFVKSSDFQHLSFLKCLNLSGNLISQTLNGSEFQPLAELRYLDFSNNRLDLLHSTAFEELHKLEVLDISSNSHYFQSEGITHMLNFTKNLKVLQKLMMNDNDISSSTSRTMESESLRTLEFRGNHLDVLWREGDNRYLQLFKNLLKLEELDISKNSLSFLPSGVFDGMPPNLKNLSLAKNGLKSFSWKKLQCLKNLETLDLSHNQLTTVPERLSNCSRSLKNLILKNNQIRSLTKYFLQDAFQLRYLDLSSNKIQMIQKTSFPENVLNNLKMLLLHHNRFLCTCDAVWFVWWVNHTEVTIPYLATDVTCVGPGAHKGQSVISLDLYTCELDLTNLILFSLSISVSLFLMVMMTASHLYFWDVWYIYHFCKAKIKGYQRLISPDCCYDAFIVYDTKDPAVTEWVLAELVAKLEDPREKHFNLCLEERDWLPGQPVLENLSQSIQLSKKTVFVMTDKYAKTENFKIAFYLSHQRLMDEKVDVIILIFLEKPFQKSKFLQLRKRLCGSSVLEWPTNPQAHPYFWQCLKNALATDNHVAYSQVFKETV
Nature of the experiment: TLR7 inhibition reporter assay (HEK-Blue SEAP reporter, gardiquimod stimulation). To be noted: HEK-Blue cells overexpressing human TLR7, SEAP reporter, gardiquimod 7.5 μM, 22 hour incubation. As for the experimental part:
(§1) TLR7/8/9 Inhibition Reporter Assays
(§2) HEK-Blue™-cells (Invivogen) overexpressing human TLR7, TLR8 or TLR9 receptors were used for screening inhibitors of these receptors using an inducible SEAP (secreted embryonic alkaline phosphatase) reporter gene under the control of the IFN-β minimal promoter fused to five NF-κB and AP-1-binding sites. Briefly, cells are seeded into Greiner 384 well plates (15000 cells per well for TLR7, 20,000 for TLR8 and 25,000 for TLR9) and then treated with test compounds in DMSO to yield a final dose response concentration range of 0.05 nM-50 μM. After a 30 minute compound pre-treatment at room temperature, the cells are then stimulated with a TLR7 ligand (gardiquimod at a final concentration of 7.5 μM), TLR8 ligand (R848 at a final concentration of 15.9 μM) or TLR9 ligand (ODN2006 at a final concentration of 5 nM) to activate NF-κB and AP-1 which induce the production of SEAP. After a 22 hour incubation at 37° C., 5% CO2, SEAP levels are determined with the addition of HEK-Blue™ Detection reagent (Invivogen), a cell culture medium that allows for detection of SEAP, according to manufacturer's specifications. The percent inhibition is determined as the % reduction in the HEK-Blue signal present in wells treated with agonist plus DMSO alone compared to wells treated with a known inhibitor.
Background: A reporter such as luciferase makes a cellular process visible.

Experiment [2] concerns the target T2, human TLR8 (Homo sapiens, UniProt Q9NR97).
T2 construct: host or cells: HEK-Blue cells
T2 sequence (Q9NR97 27-1041): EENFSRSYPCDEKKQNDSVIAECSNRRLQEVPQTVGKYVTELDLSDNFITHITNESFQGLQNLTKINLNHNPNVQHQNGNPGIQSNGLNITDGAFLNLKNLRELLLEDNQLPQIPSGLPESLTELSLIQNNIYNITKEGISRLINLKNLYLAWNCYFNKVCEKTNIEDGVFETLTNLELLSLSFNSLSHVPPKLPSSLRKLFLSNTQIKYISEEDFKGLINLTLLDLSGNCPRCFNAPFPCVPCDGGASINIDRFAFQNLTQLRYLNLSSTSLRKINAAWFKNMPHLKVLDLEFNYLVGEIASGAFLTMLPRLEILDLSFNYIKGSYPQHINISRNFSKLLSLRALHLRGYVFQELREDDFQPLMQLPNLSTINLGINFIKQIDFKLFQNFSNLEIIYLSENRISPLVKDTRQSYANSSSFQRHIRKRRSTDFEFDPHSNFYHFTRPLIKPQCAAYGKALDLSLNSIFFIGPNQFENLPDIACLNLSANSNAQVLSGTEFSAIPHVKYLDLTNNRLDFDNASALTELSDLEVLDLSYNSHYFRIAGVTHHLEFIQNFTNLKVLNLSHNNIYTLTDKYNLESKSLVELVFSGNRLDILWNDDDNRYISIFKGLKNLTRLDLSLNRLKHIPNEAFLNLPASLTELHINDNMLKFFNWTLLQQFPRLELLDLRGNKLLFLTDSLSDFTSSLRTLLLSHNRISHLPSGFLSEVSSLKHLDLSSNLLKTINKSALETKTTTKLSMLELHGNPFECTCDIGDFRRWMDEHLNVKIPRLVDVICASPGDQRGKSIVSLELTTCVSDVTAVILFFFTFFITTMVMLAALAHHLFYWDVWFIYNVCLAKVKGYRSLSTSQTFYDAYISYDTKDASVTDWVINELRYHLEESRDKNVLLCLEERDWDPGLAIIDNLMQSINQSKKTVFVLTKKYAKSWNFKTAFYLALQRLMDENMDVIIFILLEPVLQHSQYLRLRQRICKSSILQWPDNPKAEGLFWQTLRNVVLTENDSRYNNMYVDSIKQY
Nature of the experiment: TLR8 inhibition reporter assay (HEK-Blue SEAP reporter, R848 stimulation). To be noted: HEK-Blue cells overexpressing human TLR8, SEAP reporter, R848 15.9 μM, 22 hour incubation. The procedure:
as §1, §2

Experiment [3] deals with T3, human TLR9 (Homo sapiens, UniProt Q9NR96).
T3 construct: host or cells: HEK-Blue cells
T3 sequence (Q9NR96 26-1032): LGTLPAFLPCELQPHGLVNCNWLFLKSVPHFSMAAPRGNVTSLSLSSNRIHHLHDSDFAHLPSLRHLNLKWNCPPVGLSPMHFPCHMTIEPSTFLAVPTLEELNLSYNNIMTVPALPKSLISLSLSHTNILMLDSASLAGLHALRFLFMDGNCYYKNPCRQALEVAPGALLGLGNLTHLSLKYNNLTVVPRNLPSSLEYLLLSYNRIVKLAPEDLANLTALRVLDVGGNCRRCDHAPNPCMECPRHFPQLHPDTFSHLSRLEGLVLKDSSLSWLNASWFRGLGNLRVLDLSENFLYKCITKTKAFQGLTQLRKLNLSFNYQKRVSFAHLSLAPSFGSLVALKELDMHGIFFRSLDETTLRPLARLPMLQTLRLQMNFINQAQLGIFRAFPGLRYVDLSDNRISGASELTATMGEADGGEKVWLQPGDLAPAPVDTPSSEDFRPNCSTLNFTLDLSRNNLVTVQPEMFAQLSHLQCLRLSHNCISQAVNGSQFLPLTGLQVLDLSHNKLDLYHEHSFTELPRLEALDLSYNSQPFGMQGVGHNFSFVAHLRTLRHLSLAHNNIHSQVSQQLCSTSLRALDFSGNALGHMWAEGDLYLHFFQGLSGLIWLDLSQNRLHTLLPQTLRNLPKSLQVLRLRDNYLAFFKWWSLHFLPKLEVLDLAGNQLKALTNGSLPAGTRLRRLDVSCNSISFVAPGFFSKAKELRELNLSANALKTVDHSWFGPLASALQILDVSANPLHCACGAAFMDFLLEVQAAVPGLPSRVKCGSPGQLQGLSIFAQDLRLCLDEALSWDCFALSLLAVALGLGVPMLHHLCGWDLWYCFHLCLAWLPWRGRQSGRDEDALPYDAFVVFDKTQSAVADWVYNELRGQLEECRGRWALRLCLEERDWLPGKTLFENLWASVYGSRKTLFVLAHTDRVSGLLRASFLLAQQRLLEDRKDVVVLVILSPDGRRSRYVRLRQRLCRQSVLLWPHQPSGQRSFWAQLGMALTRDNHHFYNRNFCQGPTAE
Nature of the experiment: TLR9 inhibition reporter assay (HEK-Blue SEAP reporter, ODN2006 stimulation). The conditions noted are these: HEK-Blue cells overexpressing human TLR9, SEAP reporter, ODN2006 5 nM, 22 hour incubation. The procedure: as §1, §2

In general, pIC50 refers to the negative decadic logarithm of the IC50, by convention in mol/L. A low value points to a large IC50.

pIC50: −log10 of the molar value. Where only a bound is given, the exact number is not on record here.

As to `CCCN1CCC(c2ccc3[nH]c(-c4cc(-c5cncnc5)c(=O)n(CC)c4)c(C(C)C)c3c2)CC1` [Example 260, 1-ethyl-5-(3-isopropyl-5-(1-propylpiperidin-4-yl)-1H-indol-2-yl)-3-(pyrimidin-5-yl)pyridin-2(1H)-one], the pIC50 in experiment [1] is 7.63; in experiment [2] it was 8.51; in experiment [3], 5.65.

Consider `Cc1cc(-c2[nH]c3ccc(C4CCN(C(=O)C[C@H](C)O)CC4)cc3c2C(C)C)cn(C)c1=O` [Example 305, (S)-5-(5-(1-(3-hydroxybutanoyl)piperidin-4-yl)-3-isopropyl-1H-indol-2-yl)-1,3-dimethylpyridin-2(1H)-one], for which the results for the pIC50 in experiment [1], in experiment [2] and in experiment [3] were 7.96, 7.01 and at most 4.30, respectively.

For `COCCn1cc(-c2[nH]c3ccc(C4CCNCC4)cc3c2C(C)C)cc(C)c1=O` [Example 39, 5-(3-isopropyl-5-(piperidin-4-yl)-1H-indol-2-yl)-1-(2-methoxyethyl)-3-methylpyridin-2(1H)-one], the values for the pIC50 in experiment [1], in experiment [2] and in experiment [3] were 8.10, 8.10 and 5.50, respectively.

Turning to `CC(C)c1c(-c2cc(-c3cccnc3)c(=O)n(C)c2)[nH]c2ccc(C3CCNCC3)cc12` [Example 50, 5-(3-isopropyl-5-(piperidin-4-yl)-1H-indol-2-yl)-1-methyl-[3,3′-bipyridin]-2(1H)-one], the pIC50 in experiment [1] is 8.17; in experiment [2] it was 8.11; in experiment [3] it was 6.39.

Regarding `CC(C)c1c(-c2cc(CO)c(=O)n(C)c2)[nH]c2ccc(C3CCNCC3)cc12` [Example 70, 3-(hydroxymethyl)-5-(3-isopropyl-5-(piperidin-4-yl)-1H-indol-2-yl)-1-methylpyridin-2(1H)-one], the results for the pIC50 in experiment [1], in experiment [2] and in experiment [3] were 8.07, 7.58 and 5.61, respectively.

As for `CCCN1CCC(c2ccc3[nH]c(-c4cc(COC)c(=O)n(C)c4)c(C(C)C)c3c2)CC1` [Example 348, 5-(3-isopropyl-5-(1-propylpiperidin-4-yl)-1H-indol-2-yl)-3-(methoxymethyl)-1-methylpyridin-2(1H)-one], the figures for the pIC50 in experiment [1], in experiment [2] and in experiment [3] were 8.15, 7.60 and 4.97, respectively.

With `Cc1cc(-c2[nH]c3ccc(C4CCN(CC5CCOC5)CC4)cc3c2C(C)C)cn(C)c1=O` (centres unmarked) [Example 225, 5-(3-isopropyl-5-(1-((tetrahydrofuran-3-yl)methyl)piperidin-4-yl)-1H-indol-2-yl)-1,3-dimethylpyridin-2(1H)-one], the pIC50 is 8.34 in experiment [1], 8.44 in experiment [2] and 5.16 in experiment [3].

In experiment [3], `CC(C)c1c(-c2cc(C(=O)N(C)C)c(=O)n(C)c2)[nH]c2ccc(C3CCNCC3)cc12` [Example 63, 5-(3-isopropyl-5-(piperidin-4-yl)-1H-indol-2-yl)-N,N,1-trimethyl-2-oxo-1,2-dihydropyridine-3-carboxamide] showed a pIC50 of at most 4.30.

The compound `CC(C)c1c(-c2cc(CCC3CC3)c(=O)n(C)c2)[nH]c2ccc(C3CCNCC3)cc12` [Example 62, 3-(2-cyclopropylethyl)-5-(3-isopropyl-5-(piperidin-4-yl)-1H-indol-2-yl)-1-methylpyridin-2(1H)-one] gave a pIC50 in experiment [3] of at most 4.30.

With `CCCN1CCC(c2ccc3[nH]c(-c4cc(N5CCCCC5)c(=O)n(C)c4)c(C(C)C)c3c2)CC1` [Example 173, 5-(3-isopropyl-5-(1-propylpiperidin-4-yl)-1H-indol-2-yl)-1-methyl-3-(piperidin-1-yl) pyridin-2(1H)-one], the results for the pIC50 in experiment [2] and in experiment [3] were 6.01 and 5.18, respectively.

`Cc1cc(-c2[nH]c3ccc(C4CCN(CC(=O)NC[C@@H](C)O)CC4)cc3c2C(C)C)cn(C)c1=O` [Example 125, (R)-2-(4-(2-(1,5-dimethyl-6-oxo-1,6-dihydropyridin-3-yl)-3-isopropyl-1H-indol-5-yl)piperidin-1-yl)-N-(2-hydroxypropyl)acetamide]: the pIC50 is 6.54 in experiment [2] and at most 4.30 in experiment [3].

For `Cc1cc(-c2[nH]c3ccc(C4CCN(CC(=O)NC[C@H](C)O)CC4)cc3c2C(C)C)cn(C)c1=O` [Example 126, (S)-2-(4-(2-(1,5-dimethyl-6-oxo-1,6-dihydropyridin-3-yl)-3-isopropyl-1H-indol-5-yl)piperidin-1-yl)-N-(2-hydroxypropyl)acetamide], the values for the pIC50 in experiment [2] and in experiment [3] were 6.20 and at most 4.30, respectively.

These data come from patent US11447466B2, “Substituted indole compounds useful as inhibitors of TLR7/8/9” (BRISTOL-MYERS SQUIBB COMPANY, priority 2017, dated 2022).
